Assay results: US8778966B2, “Quinolinone derivatives as PARP and tank inhibitors” (Janssen Pharmaceutica, NV, priority 2007, dated 2014)

Tests used:
Assay type in all cases: cell-based, human
PC-3 cells = assay: Antiproliferative activity, Alamar Blue assay, PC-3 cells; conditions: for IC50: Homo sapiens, PC-3, PC3 cells, read-out: PC3 antiproliferative activity pIC50 (converted)
Method: Human prostate cancer PC-3 cells obtained from the ATCC were cultured in HAM′S F12 medium supplemented with 1 mM Sodium Pyruvate, 1.5 g/L Sodium Bicarbonate, 50 μg/ml gentamicin, non-essential amino acids and 10% fetal calf serum.
(§1) Resazurin was purchased from Aldrich (Prod. No. 199303). Potassium ferrocyanide, potassium ferricyanide, KH2PO4 and K2HPO4 were purchased from Sigma (Prod. Nos. P9387, P8131, P5655 and P8281, respectively).
(§2) Potassium Phosphate Buffer 0.1 M (PPB) was made as follows: 2.72 gram KH2PO4 and 13.86 gram K2HPO4 were dissolved in 500 ml milli-Q H2O, the pH was adjusted to pH 7.4 and the volume was brought to 1 litre with milli-Q H2O; the buffer was filter sterilised and stored at room temperature. Resazurin stock solution (PPB-A) was prepared fresh by dissolving 45 mg resazurin in 15 ml PBS. 30 mM potassium ferricyanide (PPB-B) was prepared by dissolving 0.987 gram potassium ferricyanide in 100 ml PPB. 30 mM potassium ferrocyanide (PPB-C) was prepared by dissolving 1.266 gram potassium ferrocyanide in 100 ml PPB.
(§3) Mixture of PPB-A, PPB-B and PPB-C was prepared by mixing equal volumes of the respective solutions. Resazurin work solution (herein termed “Alamar Blue” solution) was prepared by diluting said mixture 20×(vol/vol) in PPB and filter sterilising; the Alamar Blue solution could be kept at 4° C. for a maximum of 2 weeks.
(§4) For experiments in 384 wells plates the cells were seeded at a density of 4.5×10^3 cells/ml in Falcon 384-well culture plates (Life Technologies, Merelbeke, Belgium), black with clear bottom, in 45 μl culture medium. Cells were allowed to adhere to plastic for 24 hr. The tested compound was pre-diluted (1/50 in culture medium) and 5 μl pre-diluted compound was added to the wells. Following 4-day incubation, 10 μl of the Alamar Blue solution was added to each well and the cells were further incubated for 4 hrs (HCT116) or 24 hrs (PC-3) at 37° C. The fluorescence intensity was measured for each well on a Fluorescence plate reader (Fluorskan, Labsystems, 540 nm excitation and 590 nm emission)
(§5) The antiproliferative activity was calculated as percentage of remaining viable cells in treated versus control (untreated cells) conditions. Within an experiment, the result for each experimental condition is the mean of 3 replicate wells. When appropriate, the experiments were repeated to establish full concentration-response curves. When appropriate, IC50-values (concentration of the drug, needed to reduce cell growth to 50% of the control) were computed using probit analysis for graded data (Finney, D. J., Probit Analyses, 2nd Ed. Chapter 10, Graded Responses, Cambridge University Press, Cambridge 1962). Herein the effects of test compounds are expressed as pIC50 (the negative log value of the IC50-value) (see Table 2).

HCT116 cells [1] = assay: Mitotic arrest assay on HCT116 cells (phospho-histone H3 Ser10); conditions: lowest active dose; for minimal effective concentration: Homo sapiens, HCT-116, HCT116 cells, read-out: Mitotic arrest HCT116 LAD (converted)
From the text: Phosphorylation of histone H3 is tightly correlated with chromosome condensation during both mitosis and meiosis. The assay is a cellular immunosorbent assay wherein the sole antibody is labelled with a detectable conjugate. The phospho-histone H3 (ser10) antibody detects endogenous levels of histone H3 only when phosphorylated at serine 10. […] In parallel with antibody detection, the nuclei of the cells are stained with Hoechst 33342 for cell-counting. Cells are detected and analysed using the InCell Analyzer 1000 from GE Healthcare. Since both the antibody-detection as well as the Hoechst-staining are in the nucleus, the dual area object intensity algorithm is used for analysing the wells.
All compounds tested were dissolved in DMSO and further dilutions were made in culture medium. Final DMSO concentrations never exceeded 0.1% (v/v).
HCT116 cells (supplier: ATCC) (human colon carcinoma cell line) were cultivated in Mc Coy's 5 A medium (supplier: Gibco) supplemented with 10% foetal calf serum (FCS), 2 mM L-glutamine and gentamycin at 37° C. in a humidified incubator with 5% CO2.
HCT116 cells were seeded at 20.000 cells per well in a 96 well plate (black/clear bottom, poly-D-lysine coated, supplier Greiner), cultured overnight to adhere to the bottom of the plate and treated with compound for 6 hours at 37° C. in a humidified incubator. After incubation, the medium was removed and cells were fixed using 100 μl/well formaldehyde (Accustain®, Formaline solution 10% neutral buffered, contains 4% formaldehyde w/v, supplier: Sigma) was added. After incubation for 15 minutes at room temperature, the formaldehyde was removed and cells were incubated with methanol (−20° C.) for 15 minutes at room temperature. After incubation, cells were washed once with phosphate-buffered saline (PBS —CaCl2, —MgCl2, suppier: Gibco)/0.05% Tween 20. The anti-phospho-histone H3 (Ser10) Alexa Fluor 488 antibody (supplier: Cell signalling) is used for detection of the cells inmitosis. The antibody was diluted 1/50 in 5% bovine serum albumins (BSA) and 50 μl/well was used for incubation overnight at room temperature in the dark.
A 1/2000 dilution of Hoechtst 33342 (10 mg/ml, supplier: Invitrogen) was made and 100 μl/well was added for at least 30 minutes before acquiring images. The absorbance at dual wavelengths of 360/480 nm was measured using the InCell Analyzer 1000 from GE Healthcare and the results were then analyzed.
For each experiment, controls (containing no drug) and a blank incubation (containing no cells or drugs) were run in parallel. Analysis was done in triplicate. Low cell count wells were invalidated. The blank value was subtracted from all control and sample values and divided by the standard deviation of the measurements. The compounds were considered active when the obtained value (sigma) was >5. Herein the effects of test compounds are expressed as the lowest dose giving a sigma value of >5 (LAD) (see table F-2).

HCT116 cells [2] = assay: Antiproliferative activity, Alamar Blue assay, HCT116 cells; set-up: key to HCT116 antiproliferative activity pIC50: pIC50 = -log IC50 (IC50: conc. reducing growth to 50% of control); conditions: for IC50: Homo sapiens, HCT-116, HCT116 cells, read-out: HCT116 antiproliferative activity pIC50 (converted)
Method: Human colon carcinoma HCT116 cells obtained from the ATCC were cultured in McCoy's 5 A medium supplemented with 2 mM L-Glutamine, 50 μg/ml gentamicin and 10% heat inactivated fetal calf serum.
as §1, §2, §3, §4, §5

CCc1cc2ccc(C(C)(C#N)Cc3cccc(C(=O)O)c3)cc2[nH]c1=O (stereo not shown) [Compound 10]
IC50 (PC-3 cells): > 10000 nM
minimal effective concentration (HCT116 cells [1]): 10 µM
IC50 (HCT116 cells [2]): > 10000 nM

CCc1cc2ccc(C(C)(C#N)Cc3ccc(F)cc3)cc2[nH]c1=O (stereo not shown) [Compound 115]
IC50 (PC-3 cells): 631 nM
minimal effective concentration (HCT116 cells [1]): 0.316 µM
IC50 (HCT116 cells [2]): 631 nM

CCc1cc2ccc(C(C)(C#N)CCOc3ccccc3Br)cc2[nH]c1=O (stereo not shown) [Compound 153]
IC50 (PC-3 cells): 631 nM
minimal effective concentration (HCT116 cells [1]): 0.316 µM
IC50 (HCT116 cells [2]): 200 nM

CCc1cc2ccc(C(C)(C#N)Cc3cccc(C)c3F)cc2[nH]c1=O (stereo not shown) [Compound 132]
IC50 (PC-3 cells): 631 nM
minimal effective concentration (HCT116 cells [1]): 0.1 µM
IC50 (HCT116 cells [2]): 398 nM

CCc1cc2ccc(C(C)(C#N)Cc3cccc(F)c3F)cc2[nH]c1=O (stereo not shown) [Compound 120]
IC50 (PC-3 cells): 794 nM
minimal effective concentration (HCT116 cells [1]): 0.1 µM
IC50 (HCT116 cells [2]): 251 nM

CCc1cc2ccc(C(C)(C#N)CCOc3ccc(F)cc3)cc2[nH]c1=O (stereo not shown) [Compound 144]
IC50 (PC-3 cells): 631 nM
minimal effective concentration (HCT116 cells [1]): 0.316 µM
IC50 (HCT116 cells [2]): 501 nM

CCc1cc2ccc(C(C#N)(CCOc3ccccc3)C3CC3)cc2[nH]c1=O (stereo not shown) [Compound 166]
IC50 (PC-3 cells): 7940 nM
minimal effective concentration (HCT116 cells [1]): 1 µM
IC50 (HCT116 cells [2]): 10000 nM

CCc1cc2ccc(C(C)(C#N)Cc3c(F)c(F)c(F)c(F)c3F)cc2[nH]c1=O (stereo not shown) [Compound 116]
IC50 (PC-3 cells): 794 nM
minimal effective concentration (HCT116 cells [1]): 0.1 µM
IC50 (HCT116 cells [2]): 631 nM

CCc1cc2ccc(C(C)(C#N)Cc3cccc(C(=O)OC)c3)cc2[nH]c1=O (stereo not shown) [Compound 12]
IC50 (PC-3 cells): 63.1 nM
minimal effective concentration (HCT116 cells [1]): 0.1 µM
IC50 (HCT116 cells [2]): 31.6 nM

CCc1cc2ccc(C(C#N)(CC)C3CCc4ccc(F)cc43)cc2[nH]c1=O (stereo not shown) [Compound 391]
IC50 (PC-3 cells): 794 nM
IC50 (HCT116 cells [2]): 631 nM

CCc1cc2ccc(C(C)(C#N)Cc3cccc(NC(=O)N4CCOCC4)c3)cc2[nH]c1=O (stereo not shown) [Compound 16]
IC50 (PC-3 cells): > 10000 nM
minimal effective concentration (HCT116 cells [1]): 10 µM
IC50 (HCT116 cells [2]): > 10000 nM

C#Cc1cccc(CC(C)(C#N)c2ccc3cc(CC)c(=O)[nH]c3c2)c1 (racemic) [Compound 168]
IC50 (PC-3 cells): 158 nM
minimal effective concentration (HCT116 cells [1]): 0.0316 µM
IC50 (HCT116 cells [2]): 31.6 nM

CCc1cc2ccc(C(C)(C#N)CC3COc4ccccc4O3)cc2[nH]c1=O (single isomer, unassigned) [Compound 48]
PC3 antiproliferative activity pIC50 (PC-3 cells; PC3 cells): 5.4
Mitotic arrest HCT116 LAD (HCT116 cells [1]; HCT116 cells, the values are: pLAD (−log M lowest active dose)): 6.5
HCT116 antiproliferative activity pIC50 (HCT116 cells [2]; HCT116 cells): 5.8

CCc1cc2ccc([C@@](C)(C#N)C[C@@H]3CCc4cc(C)ccc4O3)cc2[nH]c1=O [Compound 252]
IC50 (PC-3 cells): 251 nM
IC50 (HCT116 cells [2]): 126 nM

CCc1cc2ccc(C(C)(C#N)Cc3cccc(OC)c3)cc2[nH]c1=O (stereo not shown) [Compound 113]
IC50 (PC-3 cells): 251 nM
minimal effective concentration (HCT116 cells [1]): 0.316 µM
IC50 (HCT116 cells [2]): 398 nM

CCc1cc2ccc(C(C)(C#N)Cc3cc(F)cc(Cl)c3)cc2[nH]c1=O (stereo not shown) [Compound 126]
IC50 (PC-3 cells): 200 nM
minimal effective concentration (HCT116 cells [1]): 0.1 µM
IC50 (HCT116 cells [2]): 200 nM
